Inhibition data for 24 compounds are collected here from US20240425501A1, “NOVEL BICYCLIC HETEROARYL DERIVATIVES AS SOS1:KRAS PROTEINPROTEIN INTERACTION INHIBITORS” (SATYARX PHARMA INNOVATIONS PVT LTD, priority 2021, published 2024).

By inhibition is commonly meant the percentage by which the read-out fell short of the control. The low end stands for a weak effect, the high end for a strong effect.

The structures appear in SMILES notation.

The target in the assay is T1, hSOS1 enzyme / KRAS (G12C), GST-Tag, GDP-bound protein (Homo sapiens, UniProt Q07889).
T1 sequence (Q07889 564-1049 limits assumed): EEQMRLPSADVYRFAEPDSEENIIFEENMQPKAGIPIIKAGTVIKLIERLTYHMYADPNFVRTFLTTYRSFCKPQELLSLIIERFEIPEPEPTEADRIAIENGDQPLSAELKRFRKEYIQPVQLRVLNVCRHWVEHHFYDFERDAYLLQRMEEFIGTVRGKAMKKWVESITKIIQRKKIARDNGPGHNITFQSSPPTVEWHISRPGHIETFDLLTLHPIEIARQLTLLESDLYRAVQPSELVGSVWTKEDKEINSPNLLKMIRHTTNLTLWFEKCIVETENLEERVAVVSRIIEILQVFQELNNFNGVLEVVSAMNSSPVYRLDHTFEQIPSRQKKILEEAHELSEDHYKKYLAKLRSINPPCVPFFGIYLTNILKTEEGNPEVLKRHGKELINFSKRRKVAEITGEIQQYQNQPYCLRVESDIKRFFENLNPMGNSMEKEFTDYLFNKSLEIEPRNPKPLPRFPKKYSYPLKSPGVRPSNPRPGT
Description: SOS1-mediated KRAS guanine nucleotide exchange (GEF) assay, HTRF ("On Assay"). The assay is classed as biochemical. The settings on record: 1 μM compound. As for the experimental part:
Biochemical Assay: Measurement of SOS1-Mediated KRAS Guanine Nucleotide Exchange (GEF) Assay
This assay quantifies the HTRF-based SOS1 mediated guanine nucleotide exchange assay detecting GTP binding to KRAS (G12C), GST-Tag, GDP-bound protein. This is also referred as “On Assay”.The assay buffer composition is as follows: 10 mM HEPES pH-7, 150 mM NaCl, 5 mM MgCl2, 1 mM DTT, 0.05% BSA, 0.0025% IGEPAL CA-630 and MilliQ water. 0.5 μl of compounds diluted in assay buffer were dispensed into the respective wells of 384 black well test plate. 4.75 μl of KRAS working solution containing 100 nM KRAS (G12C), GST-Tag, GDP-bound protein GDP-loaded (Reaction biology) and 2 nM Anti GST-Tb cryptate (FRET donor, Cisbio) was added in assay buffer. The components were incubated for 10 min at 25° C.
4.75 μl of hSOS1 working solution containing 20 nM hSOS1 enzyme and 200 nM EDA-GTP-DY-647P (FRET acceptor, synthesized by Jena Bioscience (Germany), supplied as a 1 mM solution) was further added in assay buffer. 4.75 μl of inhibitor control having only 200 nM EDA-GTP-DY-647P1 component without hSOS1 working solution was added in the negative control well. The plate was short spun for few seconds and incubated for 10 min. HTRF was measured using Perkin Elmer-Nivo 5F multimode plate reader.
HTRF settings: EXCITATION FILTER—320/75 nm, EMISSION FILTER (1) —615/8 nm, EMISSION FILTER (2)—665/8 nm
A general note: TR-FRET usually uses a lanthanide donor and a delayed reading to cut background.
As for `C[C@@H](Nc1nc(Cl)nc2cnc(N3CCCC3)cc12)c1cc(N)cc(C(F)(F)F)c1` [Example 1, (R)—N-(1-(3-amino-5-(trifluoromethyl)phenyl)ethyl)-2-chloro-6-(pyrrolidin-1-yl)pyrido[3,4-d]pyrimidin-4-amine], the inhibition at 1 µM is no less than 50%.

For `C[C@@H](Nc1nc(N(C)C)nc2cnc(N3CCCC3)cc12)c1cc(N)cc(C(F)(F)F)c1` [Example 2, N4—(R)-(1-(3-amino-5-(trifluoromethyl)phenyl)ethyl)-N2,N2-dimethyl-6-(pyrrolidin-1-yl)pyrido[3,4-d]pyrimidine-2,4-diamine], the inhibition at 1 µM is no less than 50%.

Consider `COc1nc(N[C@H](C)c2cc(N)cc(C(F)(F)F)c2)c2cc(N3CCCC3)ncc2n1` [Example 3, (R)—N-(1-(3-amino-5-(trifluoromethyl)phenyl)ethyl)-2-methoxy-6-(pyrrolidin-1-yl)pyrido[3,4-d]pyrimidin-4-amine], for which the inhibition at 1 µM is no less than 50%.

In turn, `COCCOc1nc(N[C@H](C)c2cc(N)cc(C(F)(F)F)c2)c2cc(N3CCCC3)ncc2n1` [Example 4, (R)—N-(1-(3-amino-5-(trifluoromethyl)phenyl)ethyl)-2-(2-methoxyethoxy)-6-(pyrrolidin-1-yl)pyrido[3,4-d]pyrimidin-4-amine] yielded an inhibition at 1 µM of no less than 50%.

The compound `C[C@@H](Nc1nc(N2CCOCC2)nc2cnc(N3CCCC3)cc12)c1cc(N)cc(C(F)(F)F)c1` [Example 5, (R)—N-(1-(3-amino-5-(trifluoromethyl)phenyl)ethyl)-2-morpholino-6-(pyrrolidin-1-yl)pyrido[3,4-d]pyrimidin-4-amine] gave an inhibition at 1 µM of less than 50%.

Consider `C[C@@H](Nc1nc(N2CCN(C)CC2)nc2cnc(N3CCCC3)cc12)c1cc(N)cc(C(F)(F)F)c1` [Example 6, (R)—N-(1-(3-amino-5-(trifluoromethyl)phenyl)ethyl)-2-(4-methylpiperazin-1-yl)-6-(pyrrolidin-1-yl)pyrido[3,4-d]pyrimidin-4-amine], for which the inhibition at 1 µM was less than 50%.

`CNc1nc(N[C@H](C)c2cc(N)cc(C(F)(F)F)c2)c2cc(N3CCCC3)ncc2n1` [Example 7, (R)—N4-(1-(3-amino-5-(trifluoromethyl)phenyl)ethyl)-N2-methyl-6-(pyrrolidin-1-yl)pyrido[3,4-d]pyrimidine-2,4-diamine] gave an inhibition at 1 µM of no less than 50%.

In turn, `C[C@@H](Nc1nc(N(C)C)nc2cnc(N3CCOCC3)cc12)c1cc(N)cc(C(F)(F)F)c1` [Example 8, (R)—N4-(1-(3-amino-5-(trifluoromethyl)phenyl)ethyl)-N2,N2-dimethyl-6-morpholinopyrido[3,4-d]pyrimidine-2,4-diamine] came in with an inhibition at 1 µM of no less than 50%.

Consider `C[C@@H](Nc1nc(NCCN(C)C)nc2cnc(N3CCCC3)cc12)c1cc(N)cc(C(F)(F)F)c1` [Example 9, (R)—N4-(1-(3-amino-5-(trifluoromethyl)phenyl)ethyl)-N2-(2-(dimethylamino)ethyl)-6-(pyrrolidin-1-yl)pyrido[3,4-d]pyrimidine-2,4-diamine], for which the inhibition at 1 µM was no less than 50%.

Take `C[C@@H](Nc1nc(N(C)CCN(C)C)nc2cnc(N3CCCC3)cc12)c1cc(N)cc(C(F)(F)F)c1` [Example 10, (R)—N4-(1-(3-amino-5-(trifluoromethyl)phenyl)ethyl)-N2-(2-(dimethylamino)ethyl)-N2-methyl-6-(pyrrolidin-1-yl)pyrido[3,4-d]pyrimidine-2,4-diamine]: the inhibition at 1 µM was no less than 50%.

Turning to `C[C@@H](Nc1nc(OCCO)nc2cnc(N3CCCC3)cc12)c1cc(N)cc(C(F)(F)F)c1` [Example 11, (R)-2-((4-((1-(3-amino-5-(trifluoromethyl)phenyl)ethyl)amino)-6-(pyrrolidin-1-yl)pyrido[3,4-d]pyrimidin-2-yl)oxy)ethan-1-ol], the inhibition at 1 µM was no less than 50%.

With `C[C@@H](Nc1nc(NCCO)nc2cnc(N3CCCC3)cc12)c1cc(N)cc(C(F)(F)F)c1` [Example 12, (R)-2-((4-((1-(3-amino-5-(trifluoromethyl)phenyl)ethyl)amino)-6-(pyrrolidin-1-yl)pyrido[3,4-d]pyrimidin-2-yl)amino)ethan-1-ol], the inhibition at 1 µM is no less than 50%.

With `C[C@@H](Nc1nc(N(C)CCO)nc2cnc(N3CCCC3)cc12)c1cc(N)cc(C(F)(F)F)c1` [Example 13, (R)-2-((4-((1-(3-amino-5-(trifluoromethyl)phenyl)ethyl)amino)-6-(pyrrolidin-1-yl)pyrido[3,4-d]pyrimidin-2-yl)(methyl)amino)ethan-1-ol], the inhibition at 1 µM is no less than 50%.

As for `COCCNc1nc(N[C@H](C)c2cc(N)cc(C(F)(F)F)c2)c2cc(N3CCCC3)ncc2n1` [Example 14, (R)—N4-(1-(3-amino-5-(trifluoromethyl)phenyl)ethyl)-N2-(2-methoxyethyl)-6-(pyrrolidin-1-yl)pyrido[3,4-d]pyrimidine-2,4-diamine], the inhibition at 1 µM is no less than 50%.

As for `COCCN(C)c1nc(N[C@H](C)c2cc(N)cc(C(F)(F)F)c2)c2cc(N3CCCC3)ncc2n1` [Example 15, (R)—N4-(1-(3-amino-5-(trifluoromethyl)phenyl)ethyl)-N2-(2-methoxyethyl)-N2-methyl-6-(pyrrolidin-1-yl)pyrido[3,4-d]pyrimidine-2,4-diamine], the inhibition at 1 µM is no less than 50%.

Compound `C[C@@H](Nc1nc(N2CCC2)nc2cnc(N3CCCC3)cc12)c1cc(N)cc(C(F)(F)F)c1` [Example 16, (R)—N-(1-(3-amino-5-(trifluoromethyl)phenyl)ethyl)-2-(azetidin-1-yl)-6-(pyrrolidin-1-yl)pyrido[3,4-d]pyrimidin-4-amine] yielded an inhibition at 1 µM of no less than 50%.

In the case of `C[C@@H](Nc1nc(N2CCCC2)nc2cnc(N3CCCC3)cc12)c1cc(N)cc(C(F)(F)F)c1` [Example 17, (R)—N-(1-(3-amino-5-(trifluoromethyl)phenyl)ethyl)-2,6-di(pyrrolidin-1-yl)pyrido[3,4-d]pyrimidin-4-amine], the inhibition at 1 µM is no less than 50%.

`CNc1nc(N[C@H](C)c2cc(N)cc(C(F)(F)F)c2)c2cc(N3CCOCC3)ncc2n1` [Example 18, (R)—N4-(1-(3-amino-5-(trifluoromethyl)phenyl)ethyl)-N2-methyl-6-morpholinopyrido[3,4-d]pyrimidine-2,4-diamine] displayed an inhibition at 1 µM of no less than 50%.

On to `C[C@@H](Nc1nc(Cl)nc2cnc(N3CCOCC3)cc12)c1cc(N)cc(C(F)(F)F)c1` [Example 19, (R)—N-(1-(3-amino-5-(trifluoromethyl)phenyl)ethyl)-2-chloro-6-morpholinopyrido[3,4-d]pyrimidin-4-amine], for which the inhibition at 1 µM was no less than 50%.

Regarding `COC1CCN(c2cc3c(N[C@H](C)c4cc(N)cc(C(F)(F)F)c4)nc(Cl)nc3cn2)CC1` [Example 20, (R)—N-(1-(3-amino-5-(trifluoromethyl)phenyl)ethyl)-2-chloro-6-(4-methoxypiperidin-1-yl)pyrido[3,4-d]pyrimidin-4-amine], the inhibition at 1 µM was no less than 50%.

Compound `C[C@@H](Nc1nc(Cl)nc2cnc(N3CCC(F)(F)CC3)cc12)c1cc(N)cc(C(F)(F)F)c1` [Example 21, (R)—N-(1-(3-amino-5-(trifluoromethyl)phenyl)ethyl)-2-chloro-6-(4,4-difluoropiperidin-1-yl)pyrido[3,4-d]pyrimidin-4-amine] displayed an inhibition at 1 µM of no less than 50%.

The compound `C[C@@H](Nc1nc(Cl)nc2cnc(N3CCC(F)CC3)cc12)c1cc(N)cc(C(F)(F)F)c1` [Example 22, (R)—N-(1-(3-amino-5-(trifluoromethyl)phenyl)ethyl)-2-chloro-6-(4-fluoropiperidin-1-yl)pyrido[3,4-d]pyrimidin-4-amine] had an inhibition at 1 µM of no less than 50%.

Turning to `C[C@@H](Nc1nc(Cl)nc2cnc(N3CCN(C)CC3)cc12)c1cc(N)cc(C(F)(F)F)c1` [Example 23, (R)—N-(1-(3-amino-5-(trifluoromethyl)phenyl)ethyl)-2-chloro-6-(4-methylpiperazin-1-yl)pyrido[3,4-d]pyrimidin-4-amine], the inhibition at 1 µM was no less than 50%.

The compound `CCN1CCN(c2cc3c(N[C@H](C)c4cc(N)cc(C(F)(F)F)c4)nc(Cl)nc3cn2)CC1` [Example 24, (R)—N-(1-(3-amino-5-(trifluoromethyl)phenyl)ethyl)-2-chloro-6-(4-ethylpiperazin-1-yl)pyrido[3,4-d]pyrimidin-4-amine] registered an inhibition at 1 µM of no less than 50%.
